Test results: patent US20250074892A1, “CARBONYL BRIDGED HETEROCYCLIC COMPOUND, AND COMPOSITION AND APPLICATION THEREOF” (BEIJING SCITECH-MQ PHARMACEUTICALS LIMITED, priority 2022, published 2025)
Where two headings read alike, the source gives them in different places.

Columns and labels:
[1] = Rat PK&BBB (pharmacokinetics and brain penetration); assay type: in vivo, SD rats; conditions: for AUC(0-inf) / AUC(0-t) / Vd / half-life / clearance / Cmax / Tmax / bioavailability: SD; for clearance: read-out: Cl—obs; for bioavailability: PO 30 mg/kg vs IV 3 mg/kg; for Kp at 2 h / concentration at 2 h / concentration at 0 h / concentration at 0.083 h / concentration at 0.25 h / concentration at 0.5 h / concentration at 1 h / concentration at 4 h / concentration at 7 h / concentration at 24 h: Sprague-Dawley; for Kp at 2 h: brain / whole blood, read-out: Brain/blood ratio; for concentration at 2 h / concentration at 0 h / concentration at 0.083 h / concentration at 0.25 h / concentration at 0.5 h / concentration at 1 h / concentration at 4 h / concentration at 7 h / concentration at 24 h: rat
Method: (§1) In this assay, the pharmacokinetic characteristics and ability to penetrate the blood-brain barrier of the compounds of the present application were assayed after administration of some of the compounds of the present application to SD rats, CD-1 mice or beagle dogs by single oral administration and intravenous injection.
(§2) 1. Intravenous (IV) injection group: an appropriate amount of the assay compound was weighed, and completely dissolved in an appropriate volume of vehicle. The mixture was stirred, vortexed and/or sonicated. Once a solution was obtained, the vehicle was gradually added to a final volume to reach the target concentration. The solution was vortexed, and sonicated to obtain a homogeneous solution. The solution was filtered through a […] PVDF membrane.
(§3) 2. Oral (PO) group: an appropriate amount of the assay compound was weighed, and completely dissolved in an appropriate volume of vehicle. The mixture was stirred, vortexed and/or sonicated. Once a solution was obtained, the vehicle was gradually added to a final volume to reach the target concentration. The solution was vortexed, and sonicated to obtain a homogeneous solution.
(§4) Meanwhile, the IV group was not fasted and the PO group was fasted overnight (>12 hrs) and given food 2 hrs after drug administration. All animals had free access to water. The dosing regimen and pharmacokinetic sampling regimen are given in Table 10 and Table 11 below, respectively.
Rats were administered according to the above protocol, and blood and brain tissue samples were collected and processed at predetermined time points (collection and processing were performed according to conventional methods in the art).
(§5) The brain was weighed and homogenized by adding 4 times of ultrapure water. Six times volume of acetonitrile was added respectively to the whole blood samples and brain homogenate (20 times volume of acetonitrile was added to the whole blood sample of mouse PK). The mixture was vortexed for 1 min and then centrifuged at 4° C., 4500 rpm for 15 min. According to the instrument response, the supernatant was diluted with diluent and the sample was analyzed by LC/MS.
(§6) Pharmacokinetic parameters were calculated using WinNonlin software. The following pharmacokinetic parameters were calculated if appropriate plasma/whole blood drug concentration-time data were available: CL (clearance); Vd (apparent volume of distribution); T1/2 (elimination half-life time); Cmax (peak concentration); Tmax (time to peak); AUC (area under plasma drug concentration-time curve); MRT (mean retention time); F % (bioavailability).

[2] = tested on: HT29 cells; test: Inhibition of cell necrosis (CCK8 method), HT29 cells; assay type: cell-based, human; conditions: Homo sapiens, HT-29, 16 h, HT29, Human TNF-α/AT-406/Z-VAD-FMK, 16 hours, CCK8
In short: (§7)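 HT29 (1.2×10^4/well) and L929 (2.0×10^4/well) cells were pretreated 30 min with compound, 9-point 4-fold series from 10 μM in duplicate. Necrosis was induced with human TNF-α 20 ng/mL, AT-406 […] and Z-VAD-FMK 20 μM for 16 h (HT29), or murine TNF-α 20 ng/mL and Z-VAD-FMK 25 μM for 4-8 h (L929). CCK8 viability; IC50 from dose-effect curve.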

[3] = tested on: L929 cells; test: Inhibition of cell necrosis (CCK8 method), L929 cells; assay type: cell-based, mouse; conditions: Mus musculus, L929, L929, Murine TNF-α/Z-VAD-FMK, 4-8 hours, CCK8
In short: as §7

[4] = Beagle PK (pharmacokinetics); assay type: in vivo, beagle dogs; conditions: whole blood, Beagle dog
Method: as §1, §2, §3, §4, §5, §6

[5] = PO 30 mg/kg, 2 h after administration
[6] = brain, po, 30 mg/kg, PO 30 mg/kg, 2 h after administration, read-out: Brain concentration
[7] = whole blood, iv, 3 mg/kg, IV 3 mg/kg, read-out: Blood drug concentration
[8] = whole blood, iv, 3 mg/kg, IV 3 mg/kg, 2 hr, read-out: Blood drug concentration
[9] = whole blood, po, 30 mg/kg, PO 30 mg/kg, read-out: Blood drug concentration
[10] = whole blood, po, 30 mg/kg, PO 30 mg/kg, 2 hr, read-out: Blood drug concentration
[11] = whole blood, po, 30 mg/kg, PO 30 mg/kg, whole blood, 2 h after administration, read-out: Blood drug concentration
[12] = IV 1 mg/kg, read-out: Blood drug concentration
[13] = PO 3 mg/kg, read-out: Blood drug concentration

In the case of `O=C(C1CCN(c2cc(-c3cc(OCCCO)ccc3F)ccn2)CC1)N1N=CCC1c1cc(F)cc(F)c1` (racemic) [Example 18, (5-(3,5-difluorophenyl)-4,5-dihydro-1H-pyrazol-1-yl)(1-(4-(2-fluoro-5-(3-hydroxypropoxy)phenyl)pyridin-2-yl)piperidin-4-yl)methanone], the AUC(0-inf) ([1]; whole blood, IV 3 mg/kg) is reported as 560 ± 62 ng·h/mL, the AUC(0-t) ([1]; whole blood, IV 3 mg/kg) is reported as 559 ± 62 ng·h/mL and the Vd ([1]; whole blood, IV 3 mg/kg) is reported as 8.24 ± 0.68 L/kg. For the same molecule, the half-life ([1]; whole blood, IV 3 mg/kg) was 1.06 ± 0.07 h, the clearance ([1]; whole blood, IV 3 mg/kg) was 90.1 ± 10.7 mL/min/kg and the AUC(0-inf) ([1]; whole blood, PO 30 mg/kg) was 967 ± 285 ng·h/mL. It also gave an AUC(0-t) ([1]; whole blood, PO 30 mg/kg) of 922 ± 357 ng·h/mL, a Cmax ([1]; whole blood, PO 30 mg/kg) of 309 ± 103 ng/mL and a Tmax ([1]; whole blood, PO 30 mg/kg) of 1 h. It also gave a half-life ([1]; whole blood, PO 30 mg/kg) of 3.1 ± 0.24 h, a bioavailability ([1]; whole blood) of 17.3 ± 5.1% and a Kp at 2 h [1, 5] of 1.49. The concentration at 2 h [1, 6] was 397 ng/g, the concentration at 0 h [1, 7] was 0 ng/mL and the concentration at 0.083 h [1, 7] was 1170 ± 149 ng/mL. It also gave a concentration at 0.25 h [1, 7] of 571 ± 31 ng/mL, a concentration at 0.5 h [1, 7] of 275 ± 24 ng/mL and a concentration at 1 h [1, 7] of 94.7 ± 10.7 ng/mL. The concentration at 2 h [1, 8] was 25.5 ± 4.7 ng/mL, the concentration at 4 h [1, 7] was 4.13 ± 0.75 ng/mL and the concentration at 7 h [1, 7] was 0.927 ± 0.301 ng/mL. It also gave a concentration at 0 h [1, 9] of 0 ng/mL, a concentration at 0.25 h [1, 9] of 85.6 ± 26.6 ng/mL and a concentration at 0.5 h [1, 9] of 239 ± 47 ng/mL. The concentration at 1 h [1, 9] was 309 ± 103 ng/mL, the concentration at 2 h [1, 10] was 165 ± 90 ng/mL and the concentration at 4 h [1, 9] was 68.7 ± 31 ng/mL. The concentration at 7 h [1, 9] was 23.5 ± 5.2 ng/mL, the concentration at 24 h [1, 9] was 0.557 ng/mL and the concentration at 2 h [1, 11] was 266 ng/mL. It also gave an IC50 [2] of no more than 10 nM, an IC50 [3] of 50 to 100 nM and an AUC(0-inf) ([4]; IV 1 mg/kg) of 699 ± 474 ng·h/mL. The AUC(0-t) ([4]; IV 1 mg/kg) was 682 ± 447 ng·h/mL, the Vd ([4]; IV 1 mg/kg) was 2.42 ± 0.54 L/kg and the half-life ([4]; IV 1 mg/kg) was 1.13 ± 0.65 h. For the same molecule, the concentration at 0 hr [4, 12] was 0 ng/mL, the concentration at 0.083 hr ([4]; IV 1 mg/kg, 0.083 hr, read-out: Blood drug concentration) was 843 ± 237 ng/mL and the concentration at 0.25 hr [4, 12] was 575 ± 222 ng/mL. For the same molecule, the concentration at 0.5 h [4, 12] was 334 ± 229 ng/mL, the concentration at 1 h [4, 12] was 170 ± 148 ng/mL and the concentration at 2 h [4, 12] was 57.9 ± 63.2 ng/mL. The concentration at 4 h [4, 12] was 26 ± 24.1 ng/mL, the concentration at 7 h [4, 12] was 10 ng/mL and the clearance ([4]; IV 1 mg/kg, read-out: Cl—obs) was 31.4 ± 17.4 mL/min/kg. The AUC(0-inf) ([4]; PO 3 mg/kg) was 4240 ng·h/mL, the AUC(0-t) ([4]; PO 3 mg/kg) was 4210 ng·h/mL and the Cmax ([4]; PO 3 mg/kg) was 1460 ng/mL. For the same molecule, the Tmax ([4]; PO 3 mg/kg) was 1 h, the half-life ([4]; PO 3 mg/kg) was 4.55 h and the bioavailability ([4]; PO 3 mg/kg vs IV 1 mg/kg) was 183%. For the same molecule, the concentration at 0 hr [4, 13] was 0 ng/mL, the concentration at 0.25 hr [4, 13] was 469 ng/mL and the concentration at 0.5 h [4, 13] was 1060 ng/mL. The concentration at 1 h [4, 13] was 1460 ng/mL, the concentration at 2 h [4, 13] was 932 ng/mL and the concentration at 4 h [4, 13] was 138 ng/mL. The concentration at 7 h [4, 13] was 82.4 ng/mL and the concentration at 24 h ([4]; PO 3 mg/kg, 24 hr, read-out: Blood drug concentration) was 4.41 ng/mL.

For `O=C(C1CCN(c2cc(-c3cc(OCCCO)ccc3F)ccn2)CC1)N1N=CC[C@H]1c1cc(F)cc(F)c1` (racemic) [Example 40], the AUC(0-inf) ([1]; whole blood, IV 3 mg/kg) was 592 ± 57 ng·h/mL, the AUC(0-t) ([1]; whole blood, IV 3 mg/kg) was 588 ± 56 ng·h/mL and the Vd ([1]; whole blood, IV 3 mg/kg) was 7.84 ± 0.5 L/kg. It also gave a half-life ([1]; whole blood, IV 3 mg/kg) of 1.07 ± 0.08 h, a clearance ([1]; whole blood, IV 3 mg/kg) of 85 ± 8.4 mL/min/kg and an AUC(0-inf) ([1]; whole blood, PO 30 mg/kg) of 1970 ± 768 ng·h/mL. It also gave an AUC(0-t) ([1]; whole blood, PO 30 mg/kg) of 1900 ± 868 ng·h/mL, a Cmax ([1]; whole blood, PO 30 mg/kg) of 581 ± 228 ng/mL and a Tmax ([1]; whole blood, PO 30 mg/kg) of 1.17 ± 0.76 h. The half-life ([1]; whole blood, PO 30 mg/kg) was 2.84 ± 0.46 h, the bioavailability ([1]; whole blood) was 33.2 ± 13% and the Kp at 2 h [1, 5] was 1.13. The concentration at 2 h [1, 6] was 309 ng/g, the concentration at 0 h [1, 7] was 0 ng/mL and the concentration at 0.083 h [1, 7] was 865 ± 45 ng/mL. For the same molecule, the concentration at 0.25 h [1, 7] was 496 ± 33 ng/mL, the concentration at 0.5 h [1, 7] was 295 ± 29 ng/mL and the concentration at 1 h [1, 7] was 119 ± 14 ng/mL. The concentration at 2 h [1, 8] was 61.9 ± 8.5 ng/mL, the concentration at 4 h [1, 7] was 13.2 ± 5 ng/mL and the concentration at 7 h [1, 7] was 2.37 ± 0.77 ng/mL. The concentration at 0 h [1, 9] was 0 ng/mL, the concentration at 0.25 h [1, 9] was 185 ± 86 ng/mL and the concentration at 0.5 h [1, 9] was 416 ± 92 ng/mL. It also gave a concentration at 1 h [1, 9] of 547 ± 248 ng/mL, a concentration at 2 h [1, 10] of 372 ± 258 ng/mL and a concentration at 4 h [1, 9] of 109 ± 99 ng/mL. For the same molecule, the concentration at 7 h [1, 9] was 59.8 ± 34.9 ng/mL, the concentration at 24 h [1, 9] was 0.93 ng/mL and the concentration at 2 h [1, 11] was 274 ng/mL. It also gave an IC50 [2] of no more than 10 nM and an IC50 [3] of 10 to 50 nM.
